In ChEMBL document CHEMBL1201862, “PubChem BioAssay data set” (2004):
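A five-concentration, 48-hour dose response in 96-well plates underlies each endpoint, interpolated linearly between surrounding concentrations. GI50 is the concentration that inhibits growth by half.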 The source made the active and inactive calls. Cut-off read from the data, not from the text of the source: active = GI50 up to about 1.1 µM and inactive = higher.

Legend:
Assay in all cases: NCI tumour cell line growth inhibition, 48 h
SK-MEL-5 = tested on: SK-MEL-5
KM-20L2 = tested on: KM-20L2
COLO 205 = tested on: COLO 205
UO-31 = tested on: UO-31
KM12 = tested on: KM12
ACHN = tested on: ACHN
MOLT-4 = tested on: MOLT-4
DMS-114 = tested on: DMS-114
HCT-116 = tested on: HCT-116
DLD-1 = tested on: DLD-1
OVCAR-3 = tested on: OVCAR-3
OVCAR-5 = tested on: OVCAR-5
UACC-62 = tested on: UACC-62
U-251 = tested on: U-251
OVCAR-4 = tested on: OVCAR-4
OVCAR-8 = tested on: OVCAR-8
HT-29 = tested on: HT-29
SW-620 = tested on: SW-620
IGROV-1 = tested on: IGROV-1
A498 = tested on: A498
SN12C = tested on: SN12C
TK-10 = tested on: TK-10
SNB-75 = tested on: SNB-75
LOX IMVI = tested on: LOX IMVI
M14 = tested on: M14
NCI-H23 = tested on: NCI-H23
SF-268 = tested on: SF-268
NCI-H460 = tested on: NCI-H460
LXFL 529 = tested on: LXFL 529
RPMI-8226 = tested on: RPMI-8226
CCRF-CEM = tested on: CCRF-CEM
A549 = tested on: A549
NCI-H522 = tested on: NCI-H522
SK-MEL-28 = tested on: SK-MEL-28
HCC 2998 = tested on: HCC 2998
RXF 393 = tested on: RXF 393
K562 = tested on: K562
SF-539 = tested on: SF-539
HCT-15 = tested on: HCT-15
786-0 = tested on: 786-0
HL-60 = tested on: HL-60
CAKI-1 = tested on: CAKI-1
SF-295 = tested on: SF-295
Hs-578T = tested on: Hs-578T
BT-549 = tested on: BT-549
UACC-257 = tested on: UACC-257
EKVX = tested on: EKVX
Malme-3M = tested on: Malme-3M
NCI-H226 = tested on: NCI-H226
MDA-N = tested on: MDA-N
NCI/ADR-RES = tested on: NCI/ADR-RES
MCF7 = tested on: MCF7
T47D = tested on: T47D
SR = tested on: SR
SNB-19 = tested on: SNB-19
MDA-MB-435 = tested on: MDA-MB-435
PC-3 = tested on: PC-3
MDA-MB-231 = tested on: MDA-MB-231
HOP-92 = tested on: HOP-92
DU-145 = tested on: DU-145
SK-MEL-2 = tested on: SK-MEL-2
SK-OV-3 = tested on: SK-OV-3
HOP-62 = tested on: HOP-62
M19-MEL = tested on: M19-MEL
SNB-78 = tested on: SNB-78

CN1CCN(CN2C(=O)C3C4C=CC(C3C2=O)C2C3C(=O)N(CN5CCN(C)CC5)C(=O)C3C42)CC1 (stereo unspecified)
GI50 (SK-MEL-5): 30.4 µM (inactive)
GI50 (KM-20L2): 25.5 µM (inactive)
GI50 (COLO 205): 20.2 µM (inactive)
GI50 (UO-31): 32.1 µM (inactive)
GI50 (KM12): 32.7 µM (inactive)
GI50 (ACHN): 19.1 µM (inactive)
GI50 (MOLT-4): 29.9 µM (inactive)
GI50 (DMS-114): 19.6 µM (inactive)
GI50 (HCT-116): 13 µM (inactive)
GI50 (DLD-1): 24.1 µM (inactive)
GI50 (OVCAR-3): 29.1 µM (inactive)
GI50 (OVCAR-5): 22.1 µM (inactive)
GI50 (UACC-62): 24.1 µM (inactive)
GI50 (U-251): 18.2 µM (inactive)
GI50 (OVCAR-4): 24.5 µM (inactive)
GI50 (OVCAR-8): 24.7 µM (inactive)
GI50 (HT-29): 45.9 µM (inactive)
GI50 (SW-620): 16.4 µM (inactive)
GI50 (IGROV-1): 42.6 µM (inactive)
GI50 (A498): > 100 µM (inactive)
GI50 (SN12C): 22.5 µM (inactive)
GI50 (TK-10): 31.1 µM (inactive)
GI50 (SNB-75): 27.7 µM (inactive)
GI50 (LOX IMVI): 17.4 µM (inactive)
GI50 (M14): 21.3 µM (inactive)
GI50 (NCI-H23): 28.7 µM (inactive)
GI50 (SF-268): 17.2 µM (inactive)
GI50 (NCI-H460): 13.5 µM (inactive)
GI50 (LXFL 529): 23.8 µM (inactive)
GI50 (RPMI-8226): 34.2 µM (inactive)
GI50 (CCRF-CEM): 22 µM (inactive)
GI50 (A549): 18.6 µM (inactive)
GI50 (NCI-H522): 12.5 µM (inactive)
GI50 (SK-MEL-28): 19.3 µM (inactive)
GI50 (HCC 2998): 27.7 µM (inactive)
GI50 (RXF 393): 20.7 µM (inactive)
GI50 (K562): 28.2 µM (inactive)
GI50 (SF-539): 24.7 µM (inactive)
GI50 (HCT-15): 14.6 µM
GI50 (786-0): 18.4 µM (inactive)

COc1cc2cc3c4c(cc(OC)c(OC)c4c2cc1OC)CCN3C
GI50 (HL-60): 5.3 µM (inactive)
GI50 (CAKI-1): 4.86 µM (inactive)
GI50 (SK-MEL-5): 6.03 µM (inactive)
GI50 (COLO 205): 7.64 µM (inactive)
GI50 (SF-295): 3.07 µM (inactive)
GI50 (Hs-578T): 2.63 µM (inactive)
GI50 (UO-31): 2.11 µM (inactive)
GI50 (KM12): 11 µM (inactive)
GI50 (ACHN): 3.66 µM (inactive)
GI50 (BT-549): 6.46 µM (inactive)
GI50 (UACC-257): 9.12 µM (inactive)
GI50 (MOLT-4): 2.41 µM (inactive)
GI50 (HCT-116): 5.96 µM (inactive)
GI50 (OVCAR-3): 8.05 µM (inactive)
GI50 (EKVX): 15.3 µM (inactive)
GI50 (OVCAR-5): 21 µM (inactive)
GI50 (Malme-3M): 8.53 µM (inactive)
GI50 (NCI-H226): 7.35 µM (inactive)
GI50 (MDA-N): 13.1 µM (inactive)
GI50 (NCI/ADR-RES): 4.2 µM (inactive)
GI50 (UACC-62): 4.83 µM (inactive)
GI50 (MCF7): 2.63 µM (inactive)
GI50 (U-251): 3.58 µM (inactive)
GI50 (OVCAR-4): 2.51 µM (inactive)
GI50 (OVCAR-8): 12.7 µM (inactive)
GI50 (HT-29): 6.89 µM (inactive)
GI50 (T47D): 1.67 µM (inactive)
GI50 (SW-620): 7.36 µM (inactive)
GI50 (IGROV-1): 4.21 µM (inactive)
GI50 (SR): 1.25 µM (inactive)
GI50 (A498): 6.84 µM (inactive)
GI50 (SN12C): 7.38 µM (inactive)
GI50 (TK-10): 4.42 µM (inactive)
GI50 (SNB-19): 12.5 µM (inactive)
GI50 (SNB-75): 8.13 µM (inactive)
GI50 (LOX IMVI): 5.25 µM (inactive)
GI50 (MDA-MB-435): 5.56 µM (inactive)
GI50 (PC-3): 3.52 µM (inactive)
GI50 (MDA-MB-231): 7.73 µM (inactive)
GI50 (M14): 6.9 µM (inactive)
GI50 (HOP-92): 9.93 µM (inactive)
GI50 (NCI-H23): 12.8 µM (inactive)
GI50 (SF-268): 8.53 µM (inactive)
GI50 (NCI-H460): 2.65 µM (inactive)
GI50 (RPMI-8226): 2.72 µM (inactive)
GI50 (CCRF-CEM): 1.36 µM (inactive)
GI50 (DU-145): 4.97 µM (inactive)
GI50 (SK-MEL-2): 10.3 µM (inactive)
GI50 (SK-OV-3): 9.18 µM (inactive)
GI50 (A549): 9.53 µM (inactive)
GI50 (NCI-H522): 2.58 µM (inactive)
GI50 (SK-MEL-28): 18.1 µM (inactive)
GI50 (HOP-62): 11.9 µM (inactive)
GI50 (HCC 2998): 7.41 µM (inactive)
GI50 (RXF 393): 1.83 µM (inactive)
GI50 (K562): 6.19 µM (inactive)
GI50 (SF-539): 9.25 µM (inactive)
GI50 (HCT-15): 6.84 µM
GI50 (786-0): 4.29 µM (inactive)

[N-]=[N+]=Nc1ccc2c(c1)Sc1ccccc1N2CCCCN1CCN(Cc2ccc(C(=O)c3ccccc3)cc2)CC1
GI50 (HL-60): 2.47 µM (inactive)
GI50 (CAKI-1): 7.13 µM (inactive)
GI50 (SK-MEL-5): 2.13 µM (inactive)
GI50 (COLO 205): 1.79 µM (inactive)
GI50 (SF-295): 23.4 µM (inactive)
GI50 (Hs-578T): 16.3 µM (inactive)
GI50 (UO-31): 2.51 µM (inactive)
GI50 (KM12): 3.01 µM (inactive)
GI50 (ACHN): 6.46 µM (inactive)
GI50 (BT-549): > 20.7 µM (inactive)
GI50 (UACC-257): 2.04 µM (inactive)
GI50 (MOLT-4): 3.6 µM (inactive)
GI50 (HCT-116): 3.43 µM (inactive)
GI50 (OVCAR-3): 3.72 µM (inactive)
GI50 (EKVX): 6.67 µM (inactive)
GI50 (OVCAR-5): 4.16 µM (inactive)
GI50 (Malme-3M): 1.95 µM (inactive)
GI50 (NCI-H226): 20.4 µM (inactive)
GI50 (MDA-N): 9.51 µM (inactive)
GI50 (NCI/ADR-RES): 3.68 µM (inactive)
GI50 (UACC-62): 2.43 µM (inactive)
GI50 (MCF7): 2.64 µM (inactive)
GI50 (U-251): 5.74 µM (inactive)
GI50 (OVCAR-4): 4.6 µM (inactive)
GI50 (OVCAR-8): 3.4 µM (inactive)
GI50 (HT-29): 1.46 µM (inactive)
GI50 (T47D): 3.39 µM (inactive)
GI50 (SW-620): 6.22 µM (inactive)
GI50 (IGROV-1): > 22.3 µM (inactive)
GI50 (SR): 3 µM (inactive)
GI50 (A498): 17.4 µM (inactive)
GI50 (SN12C): > 25.3 µM (inactive)
GI50 (TK-10): > 39.6 µM (inactive)
GI50 (SNB-19): > 100 µM (inactive)
GI50 (SNB-75): 4.32 µM (inactive)
GI50 (LOX IMVI): 1.76 µM (inactive)
GI50 (MDA-MB-435): 4.92 µM (inactive)
GI50 (PC-3): 3.35 µM (inactive)
GI50 (MDA-MB-231): 3.11 µM (inactive)
GI50 (M14): 2 µM (inactive)
GI50 (HOP-92): 2.29 µM (inactive)
GI50 (NCI-H23): 6.49 µM (inactive)
GI50 (SF-268): 5.6 µM (inactive)
GI50 (NCI-H460): 2.85 µM (inactive)
GI50 (RPMI-8226): 3.86 µM (inactive)
GI50 (CCRF-CEM): 5.97 µM (inactive)
GI50 (DU-145): > 100 µM (inactive)
GI50 (SK-MEL-2): 2.65 µM (inactive)
GI50 (SK-OV-3): > 100 µM (inactive)
GI50 (A549): > 92.5 µM (inactive)
GI50 (NCI-H522): 1.85 µM (inactive)
GI50 (SK-MEL-28): 1.96 µM (inactive)
GI50 (HOP-62): > 38.9 µM (inactive)
GI50 (HCC 2998): 2.13 µM (inactive)
GI50 (RXF 393): 1.72 µM (inactive)
GI50 (K562): 3.23 µM (inactive)
GI50 (SF-539): 3.35 µM (inactive)
GI50 (HCT-15): 3.47 µM
GI50 (786-0): 5.24 µM (inactive)

COc1cc(Cn2c3ccccc3c3cc(C)cc(OC)c32)cc2c1[nH]c1ccccc12
GI50 (SK-MEL-5): > 25 µM (inactive)
GI50 (COLO 205): > 25 µM (inactive)
GI50 (UO-31): > 25 µM (inactive)
GI50 (DMS-114): 20 µM (inactive)
GI50 (HCT-116): > 25 µM (inactive)
GI50 (DLD-1): > 25 µM (inactive)
GI50 (OVCAR-3): 10.2 µM (inactive)
GI50 (OVCAR-5): > 25 µM (inactive)
GI50 (Malme-3M): > 25 µM (inactive)
GI50 (U-251): > 25 µM (inactive)
GI50 (OVCAR-8): 10.5 µM (inactive)
GI50 (IGROV-1): > 25 µM (inactive)
GI50 (SN12C): > 25 µM (inactive)
GI50 (TK-10): > 25 µM (inactive)
GI50 (SNB-19): > 25 µM (inactive)
GI50 (RPMI-8226): > 25 µM (inactive)
GI50 (SK-MEL-2): > 25 µM (inactive)
GI50 (SK-OV-3): > 25 µM (inactive)
GI50 (SK-MEL-28): > 25 µM (inactive)
GI50 (M19-MEL): > 25 µM (inactive)
GI50 (HCC 2998): > 25 µM (inactive)
GI50 (SNB-78): 23.1 µM (inactive)
GI50 (786-0): > 25 µM (inactive)
